Data set [1] has as its target T1, C-C chemokine receptor type 9 (Homo sapiens, UniProt P51686).
T1 sequence (P51686 whole entry): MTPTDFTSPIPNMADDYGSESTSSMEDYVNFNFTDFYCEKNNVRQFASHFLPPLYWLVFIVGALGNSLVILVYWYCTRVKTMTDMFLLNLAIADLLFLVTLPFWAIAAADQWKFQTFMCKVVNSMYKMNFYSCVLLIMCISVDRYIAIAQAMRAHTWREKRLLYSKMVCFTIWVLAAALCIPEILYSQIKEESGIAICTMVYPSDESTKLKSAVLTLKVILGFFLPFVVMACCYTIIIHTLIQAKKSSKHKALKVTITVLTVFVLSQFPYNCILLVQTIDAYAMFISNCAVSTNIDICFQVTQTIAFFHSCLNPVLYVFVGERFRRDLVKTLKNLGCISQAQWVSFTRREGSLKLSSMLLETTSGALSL
Description: Antagonist activity at CCR9 receptor (unknown origin) assessed as inhibition of TECK-induced calcium mobilization incubated for 10 mins prior to TECK induction

The nature of data set [2]: Oral bioavailability in mouse. It counts as ADME, organism-based. The settings on record: in vivo.
Data set [3] is described as follows: Volume of distribution at steady state in iv dosed mouse. The settings on record: in vivo, read-out: Vdss. It counts as ADME, organism-based.
A short description of data set [4]: Solubility of the compound at pH 7.4. It counts as physicochemical. Particulars: buffer.
Data set [5] in a line: Solubility of the compound at pH 9. The format is physicochemical. The settings on record: buffer.
The nature of data set [6]: Terminal half life in iv and po dosed mouse. It counts as ADME, organism-based. The settings on record: in vivo, read-out: beta t1/2 (converted).
A short description of data set [7]: Clearance in iv dosed mouse. The format is ADME, organism-based. Particulars: in vivo.
Data set [8] is described as follows: Clearance in mouse liver microsomes. It counts as ADME. The settings on record: read-out: CLH.
The test system of the next data set is Mus musculus. The experiment in a line: Dose normalized AUC in iv dosed mouse. It counts as ADME, organism-based. Particulars: in vivo.
Data set [9] is described as follows: Plasma protein binding in human. The format is ADME, cell-free. The settings on record: read-out: PPB (converted).
Data set [10] can be described thus: Lipophilicity, log D of the compound. It counts as physicochemical. The settings on record: octanol/water.

34 compounds from ChEMBL document CHEMBL3603812, “Biarylsulfonamide CCR9 inhibitors for inflammatory bowel disease” (Bioorg Med Chem Lett, 2015) can be followed below.

What is called IC50 is the concentration that gives 50% inhibition. Higher therefore signals lower potency. What is called bioavailability is the share of a dose that reaches the circulation, judged against a reference dose that is usually intravenous. Higher therefore signals much systemic uptake. One may read the solubility as how much of the substance goes into solution per volume. Low values mean little dissolved substance, high ones much dissolved substance. Broadly, the clearance is the volume of plasma or blood freed of the substance per unit of time. The low end stands for a low capacity for elimination, the high end for a high capacity for elimination. The logD is the decadic logarithm of the distribution of all forms, ionised or not, between an organic phase and buffer at a given pH.

Each structure is given as a SMILES string. In brackets after ≈: the same amount, converted by molar mass. Where only a bound is given, the exact number is not on record here.

The compound `CC(C)(C)c1ccc(S(=O)(=O)Nc2ccc(Cl)cc2-c2ccccn2)cc1` showed a 50% inhibitory concentration (IC50) in data set [1] of more than 10000 nM.

With `COc1ccnc(-c2cc(Cl)ccc2NS(=O)(=O)c2ccc(C(C)(C)C)cc2)c1`, in data set [1], half-maximal inhibition (IC50) was put at 2500 nM.

In data set [1], `COc1cccnc1-c1cc(Cl)ccc1NS(=O)(=O)c1ccc(C(C)(C)C)cc1` yielded an IC50 of 958 nM.

As to `CC(C)(C)c1ccc(S(=O)(=O)Nc2ccc(Cl)cc2-c2ncccc2O)cc1`, the IC50 in [1] amounted to 29 nM.

In data set [1], `CC(C)(C)c1ccc(S(=O)(=O)Nc2ccc(Cl)cc2-c2ncccc2N)cc1` yielded an IC50 of 95 nM.

In turn, `CC(C)(C)c1ccc(S(=O)(=O)Nc2ccc(Cl)cc2-c2ncccc2CO)cc1` came in with a 50% inhibitory concentration (IC50) in [1] of 89 nM.

`CC(C)(C)c1ccc(S(=O)(=O)Nc2ccc(Cl)cc2-c2ncccc2CN)cc1` returned an IC50 in data set [1] of 3160 nM.

In data set [1], `COCc1cccnc1-c1cc(Cl)ccc1NS(=O)(=O)c1ccc(C(C)(C)C)cc1` returned a half-inhibitory concentration (IC50) of 3480 nM.

The compound `CC(C)(C)c1ccc(S(=O)(=O)Nc2ccc(Cl)cc2-c2c(O)ccc[n+]2[O-])cc1` gave a half-maximal inhibitory concentration (IC50) in data set [1] of 491 nM.

Compound `CC(C)(C)c1ccc(S(=O)(=O)Nc2ccc(Cl)cc2-c2nccc(C(N)=O)c2O)cc1` registered a half-inhibitory concentration (IC50) in data set [1] of 52 nM.

In data set [1], `CC(C)(C)c1ccc(S(=O)(=O)Nc2ccc(Cl)cc2-c2nccc(CO)c2O)cc1` showed a half-inhibitory concentration (IC50) of 8.7 nM.

In the case of `CC(C)(C)c1ccc(S(=O)(=O)Nc2ccc(Cl)cc2-c2ncccn2)cc1`, the concentration for half-maximal inhibition (IC50) in data set [1] was 0.3 nM.

In data set [1], `CC(C)(C)c1ccc(S(=O)(=O)Nc2ccc(Cl)cc2-c2ncncc2N)cc1` yielded an IC50 of 3.2 nM.

`CC(C)(C)c1ccc(S(=O)(=O)Nc2ccc(Cl)cc2-c2nccnc2N)cc1`: half-maximal inhibition in data set [1] (IC50) required 3.2 nM.

`CC(C)(C)c1ccc(S(=O)(=O)Nc2ccc(Cl)cc2-c2nnccc2N)cc1`: the IC50 in [1] came out at 3.8 nM.

In data set [1], `CC(C)(C)c1ccc(S(=O)(=O)Nc2ccc(Cl)cc2-c2ncncc2O)cc1` gave an IC50 of 11 nM.

The compound `CC(C)(C)c1ccc(S(=O)(=O)Nc2ccc(Cl)cc2-c2nc(N)ncc2O)cc1` yielded an IC50 in data set [1] of 4 nM.

`CNc1ncc(O)c(-c2cc(Cl)ccc2NS(=O)(=O)c2ccc(C(C)(C)C)cc2)n1` came in with an IC50 in data set [1] of 27 nM.

`CC(C)(C)c1ccc(S(=O)(=O)Nc2ccc(Cl)cc2-c2nc(NCCO)ncc2O)cc1`: in data set [1], half-maximal inhibition (IC50) was put at 214 nM.

In turn, `CC(C)(C)c1ccc(S(=O)(=O)Nc2ccc(Cl)cc2-c2ncnc(N)c2O)cc1` displayed an IC50 in data set [1] of 14 nM.

`CN(C)c1ncnc(-c2cc(Cl)ccc2NS(=O)(=O)c2ccc(C(C)(C)C)cc2)c1O`: in data set [1], the concentration for half-maximal inhibition (IC50) was 9 nM.

In [1], `CC(C)(C)c1ccc(S(=O)(=O)Nc2ccc(Cl)cc2-c2nncc(N3CCOCC3)c2N)cc1` gave a half-maximal inhibitory concentration (IC50) of 26 nM.

In the case of `CC(C)(C)c1ccc(S(=O)(=O)Nc2ccc(Cl)cc2-c2ncnc(CO)c2O)cc1`, in [1], the IC50 was 11 nM.

For the compound `CCc1ncnc(-c2cc(Cl)ccc2NS(=O)(=O)c2ccc(C(C)(C)C)cc2)c1O`, the 50% inhibitory concentration (IC50) in data set [1] came to 6 nM.

As to `CNc1nccnc1-c1cc(Cl)ccc1NS(=O)(=O)c1ccc(C(C)(C)C)cc1`, in data set [1], the half-inhibitory concentration (IC50) stood at 25 nM.

In the case of `CCNc1nccnc1-c1cc(Cl)ccc1NS(=O)(=O)c1ccc(C(C)(C)C)cc1`, in data set [1], 421 nM corresponded to half-maximal inhibition (IC50).

As for `CC(C)(C)c1ccc(S(=O)(=O)Nc2ccc(Cl)cc2-c2nccnc2NCCO)cc1`, in data set [2], the bioavailability was 38%. In data set [3], the Vd came out at 1.1 L/kg. For the same compound, the solubility in data set [4] is 240 µg/mL (≈ 521 µM); in data set [5] it was 1100 µg/mL (≈ 2390 µM). This compound gave an IC50 in data set [1] of 34 nM. In addition, in data set [6], the half-life was 72 min. The same compound yielded a clearance in [7] of 26 mL/min/kg. The CLint scaled in data set [8] came to 49 mL/min/kg. Further, the AUC/dose in the data set with Mus musculus was 0.65 µg·h/mL/mg/kg. Also, in data set [9], the fraction unbound is 0.016.

In data set [1], `CC(C)(C)c1ccc(S(=O)(=O)Nc2ccc(Cl)cc2-c2nccnc2NCCCO)cc1` registered an IC50 of 614 nM.

In [1], `CN(C)CCNc1nccnc1-c1cc(Cl)ccc1NS(=O)(=O)c1ccc(C(C)(C)C)cc1` yielded an IC50 of 3600 nM.

For `CC(C)(C)c1ccc(S(=O)(=O)Nc2ccc(Cl)cc2-c2nccnc2NCC(=O)O)cc1`, the 50% inhibitory concentration (IC50) in data set [1] stood at 812 nM.

`Cc1cnc(-c2cc(Cl)ccc2NS(=O)(=O)c2ccc(C(C)(C)C)cc2)c(NCCO)n1` returned an IC50 in [1] of 268 nM.

In [1], `CNc1cnc(-c2cc(Cl)ccc2NS(=O)(=O)c2ccc(C(C)(C)C)cc2)c(NCCO)n1` had an IC50 of 1010 nM.

In data set [1], `CC(C)(C)c1ccc(S(=O)(=O)Nc2ccc(Cl)cc2-c2nc(Cl)cnc2NCCO)cc1` gave a 50% inhibitory concentration (IC50) of 715 nM.

In the case of `CC(C)(C)c1ccc(S(=O)(=O)Nc2ccc(Cl)cc2C(=O)c2cc[n+]([O-])cc2)cc1` [VERCIRNON], the bioavailability in data set [2] turned out to be 10%. Also, the logD in data set [10] was determined as 3.7. For the same compound, the Vd in [3] came to 0.83 L/kg. In addition, the solubility is 1.2 µg/mL (≈ 2.7 µM) in data set [4] and 51 µg/mL (≈ 115 µM) in [5]. The half-life in data set [6] was 78 min. Moreover, the clearance in data set [7] is 33 mL/min/kg. In addition, the CLint scaled in data set [8] was 147 mL/min/kg. The compound further showed an AUC/dose in the data set with Mus musculus of 0.56 µg·h/mL/mg/kg. The fraction unbound in data set [9] is 0.009.
